# Data published in a melting point compilation (Tetko et al.; mined from patent text by program, amines drawn as free bases though some values may be those of a salt).
row,SMILES,melting point
1,"CCN(CC)CCC1CCc2cc(O)ccc2C1 (single isomer, unassigned; (+))",102 to 104 °C
2,COC1CCN(C2CCN(c3ccc(N)cc3C#N)CC2)CC1,125 to 130 °C
3,Cn1nnnc1-c1cnc2cc(F)c(F)cc2c1O,> 300 °C
4,CCCCCCCCCCCCCCCSCCO,44 to 46 °C
5,CCOC(=O)c1cc(-c2ocnc2C)[nH]n1,131 to 133 °C
6,Cc1ccc(NC(=O)N(C)Cc2cccc3c2C(=O)N(C2CCC(=O)NC2=O)C3=O)cc1 (stereo unspecified),> 260 °C
7,COc1cc(F)c(C)cc1C#N,99 to 101 °C
8,CN1CCCC(OC(=O)Nc2ccc(C(F)(F)F)cc2)C1 (stereo unspecified),119 to 120 °C
9,COc1nccc2c1C(C)(O)c1c([nH]c3ccncc13)C2(C)O (stereo unspecified),> 250 °C
10,CCOC(=O)c1c(CC)nc2c(C(F)(F)F)cccc2c1O,129 °C
11,O=C(Cn1ccnc1)c1ccccc1O,195 to 200 °C
12,CCCCCCS(=O)(=O)c1ccc(S(=O)(=O)CCCCCC)nc1,135 to 136 °C
13,O=C(Nc1cccc(Br)n1)Nc1cccc2c1C1CC3(CCN1C2=O)SCCS3 (stereo unspecified),170 °C
14,CC(=O)c1ccc(C(=O)CCl)s1,94 to 95 °C
15,CC(c1cc2ccccc2s1)N(OC(=O)OC(C)(C)C)C(N)=O (stereo unspecified),120 to 122 °C
16,O=C(CCl)CCCCc1ccc(CCCCC(=O)CCl)cc1,86 to 87 °C
17,COc1cc2c(cc1C(=O)Cl)nnn2C(C)=O,170 °C
18,COc1cccc([C@H]2O[C@H](CC(=O)N[C@@H](CCSC)C(=O)O)C(=O)N(CC(C)(C)CO)c3ccc(Cl)cc32)c1OC,129 to 130 °C
19,N#Cc1cc(C(=O)NN2CCOCC2)ccc1OCC(=O)Nc1ccc(Cl)cn1,165 to 167 °C
20,COc1c(C)cnc(C#N)c1C,59 to 61 °C
21,COc1cc2c(cc1OC)C(C(S)(C#N)c1ccccc1C(=O)O)=NCC2 (stereo unspecified),245 to 247 °C
22,COC(=O)C1=C(C)NC(C)=C(C(C)=O)C1c1ccccc1Cl (stereo unspecified),183 to 184 °C
23,CC(C)(C)NC1=NCCNC(c2ccccc2)=C1,93 to 97 °C

# More lines, now with the values ahead:
row,melting point,SMILES
1,219 °C,COc1ccc2cc(-c3ccc(-n4nc(C)nc4C)c(Cl)c3)c(=O)oc2c1
2,258 to 260 °C,O=C(O)COc1ccc2cc(-c3cnc(Cc4ccc5ccccc5c4)o3)ccc2c1
3,75 to 78 °C,O=C(O)[C@H](Cc1ccc(OCc2ccccc2)cc1)NS(=O)(=O)c1ccc(N2CCC(c3ccccc3)CC2)cc1
4,140 to 142 °C,COc1ccc2c3c(c(=O)oc2c1)CN(Cc1ccc(Cl)cc1)CC3
5,63 to 65 °C,COc1cccc(C(O)c2cc3ccccc3s2)c1 (stereo unspecified)
6,192 °C,CC(C)(N)c1ccc(-c2nc(Nc3cccc(C(F)(F)F)c3)ncc2C#N)cc1
7,280 to 282 °C,CCNC(=O)Nc1cc(C(=O)OC)c(O)c2ncc(Cc3ccc(F)cc3)cc12
8,139 °C,Cc1nc2ccccn2c(=O)c1CCN1CCC(C(=O)c2ccc(F)cc2)CC1
9,144 to 145 °C,Nc1ncnc2c1c(-c1ccc(Oc3ccccc3)cc1)cn2CCO
10,223 to 225 °C,CCC(c1oc2ccccc2c(=O)c1-c1ccccc1)n1cnc2c(N)ncnc21 (stereo unspecified)
11,218 to 220 °C,Cn1cc(C2=C(c3cn(CCCNc4ncccc4[N+](=O)[O-])c4ccccc34)C(=O)NC2=O)c2ccccc21
12,158 to 159 °C,O=C(C=C1OC(=O)c2ccccc21)c1ccc(Cl)cc1
13,215 to 217 °C,COc1ccc2[nH]c(=O)c(-c3nnnn3Cc3cccc(OCc4ccc5ccccc5n4)c3)cc2c1
14,96 to 116 °C,COc1cccc2c1cc(C)n2Cc1ccccc1
15,215 °C,CC(C)(C)OC(=O)NCCn1cnc2c(N)nc3ccccc3c21
16,158 to 159 °C,COC(=O)c1cc2c3ccccc3n(Cc3ccccc3)c2s1
17,162 to 164 °C,c1ccc2c(c1)CSc1ccccc1C2n1ccnc1 (stereo unspecified)
18,167 to 168 °C,CO/N=C(\C)c1ccc(Nc2c3ccccc3nc3occc23)cc1
